In this test the target is T1, HPK1 (Homo sapiens, UniProt Q92918).
T1 construct: A HiBiT tag was introduced by CRISPR on the N terminus of HPK1 in Jurkat cells; host or cells: Jurkat cells (ATCC TIB-152), monoclonal line with CRISPR knock-in of HiBiT at the endogenous HPK1 locus
Nature of the test: HPK1 Cellular HiBit Degradation Assay. Format: cell-based. Particulars: HiBiT HPK1 Jurkat cells, 24 hrs; for DC50: concentration at which 50% of HPK1 was remaining, read-out: DC50 Category; for Dmax: Jurkat, maximum degradation vs DMSO vehicle control, read-out: Dmax Category. In outline: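 Jurkat cells with CRISPR knock-in N-terminal HiBiT-HPK1 were treated with CTMs (11-point, 3.16-fold, 10 uM to 0.1 nM final) for 24 hrs at 37° C. HiBiT lytic luminescence, with parental Jurkat as background and DMSO as 100%, gave % HPK1 remaining; four-parameter fit yielded DC50 and Dmax (100 minus lowest % remaining).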

Bounds are passed on as bounds.

T1 sequence (Q92918 whole entry): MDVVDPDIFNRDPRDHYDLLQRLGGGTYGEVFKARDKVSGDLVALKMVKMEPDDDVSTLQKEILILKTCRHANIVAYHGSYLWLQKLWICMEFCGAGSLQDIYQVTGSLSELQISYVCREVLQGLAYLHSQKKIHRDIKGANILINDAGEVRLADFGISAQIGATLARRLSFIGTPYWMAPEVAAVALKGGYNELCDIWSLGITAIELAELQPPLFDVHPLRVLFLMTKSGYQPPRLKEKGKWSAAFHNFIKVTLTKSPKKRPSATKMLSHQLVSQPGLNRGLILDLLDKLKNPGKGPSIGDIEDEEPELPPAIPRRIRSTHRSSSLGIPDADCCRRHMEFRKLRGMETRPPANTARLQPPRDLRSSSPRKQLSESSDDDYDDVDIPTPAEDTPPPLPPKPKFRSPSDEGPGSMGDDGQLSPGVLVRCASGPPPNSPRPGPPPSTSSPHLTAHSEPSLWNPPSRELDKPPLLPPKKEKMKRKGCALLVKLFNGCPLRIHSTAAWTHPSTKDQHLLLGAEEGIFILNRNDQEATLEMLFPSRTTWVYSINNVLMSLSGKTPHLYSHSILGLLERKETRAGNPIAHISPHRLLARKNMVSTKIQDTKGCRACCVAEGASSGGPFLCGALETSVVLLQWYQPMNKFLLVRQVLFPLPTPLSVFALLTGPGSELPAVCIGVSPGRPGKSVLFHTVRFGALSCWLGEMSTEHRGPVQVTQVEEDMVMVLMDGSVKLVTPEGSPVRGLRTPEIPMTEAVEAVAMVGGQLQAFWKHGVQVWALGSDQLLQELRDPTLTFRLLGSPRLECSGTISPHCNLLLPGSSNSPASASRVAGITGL

In the case of `CC(C)n1cnc2cc(-c3ccc4c(c3)N([C@H]3C[C@@H](N5CCCCC5)C3)C(=O)C43CCN(C(=O)C4(C)CCN(C(=O)C5CCN(c6ccc(C7CCC(=O)NC7=O)cn6)CC5)CC4)CC3)nc(N3CC(C#N)C3)c21` (stereo partly drawn) [Example 175, 1-{6-[1′-(1-{1-[5-(2,6-dioxopiperidin-3-yl)pyridin-2-yl]piperidine-4-carbonyl}-4-methylpipe-ridine-4-carbonyl)-2-oxo-1-[(1S,3S)-3-(piperidin-1-yl)cyclobutyl]-1,2-dihydrospiro[indole-3,4′-pi-peridin]-6-yl]-3-(propan-2-yl)-3H-imidazo[4,5-c]pyridin-4-yl}azetidine-3-carbonitrile], the DC50 was under 0.1 µM and the Dmax is 70 to 85%.
Consider `CC(C)n1cnc2cc(-c3ccc4c(c3)N([C@H]3C[C@@H](N5CCCCC5)C3)C(=O)C43CCN(C(=O)C4(C)CCN(C(=O)C5CCN(c6ccc(C7CCC(=O)NC7=O)cn6)CC5)CC4)CC3)nc(N[C@H]3C[C@H](C#N)C3)c21` (stereo partly drawn) [Example 176, (1R,3R)-3-({6-[1′-(1-{1-[5-(2,6-dioxopiperidin-3-yl)pyridin-2-yl]piperidine-4-carbonyl}-4-methylpiperidine-4-carbonyl)-2-oxo-1-[(1S,3S)-3-(piperidin-1-yl)cyclobutyl]-1,2-dihydrospiro[indole-3,4′-piperidin]-6-yl]-3-(propan-2-yl)-3H-imidazo[4,5-c]pyridin-4-yl}amino)cyclobutane-1-carbonitrile], for which the DC50 is 0.1 to 0.5 µM and the Dmax is 70 to 85%.
For `CC(C)n1cnc2cc(-c3ccc4c(c3)N([C@H]3C[C@@H](N5CCCCC5)C3)C(=O)C43CCN(C(=O)C4(C)CCN(C(=O)C5CCN(c6ccc(C7CCC(=O)NC7=O)cn6)CC5)CC4)CC3)nc(NC3CC4(COC4)C3)c21` (stereo partly drawn) [Example 177, 3-(6-{4-[4-methyl-4-({6-[4-({2-oxaspiro[3.3]heptan-6-yl}amino)-3-(propan-2-yl)-3H-imidazo[4,5-c]pyridin-6-yl]-2-oxo-1-[(1S,3S)-3-(piperidin-1-yl)cyclobutyl]-1,2-dihydrospiro[indole-3,4′-piperidin]-1′-yl}carbonyl)piperidine-1-carbonyl]piperidin-1-yl}pyridin-3-yl)piperidine-2,6-dione] the same measures were under 0.1 µM and 70 to 85%.
For `CC(C)n1cnc2cc(-c3ccc4c(c3)N([C@H]3C[C@@H](N5CCCCC5)C3)C(=O)C43CCN(C(=O)C4(C)CCN(C(=O)C5CCN(c6ccc(C7CCC(=O)NC7=O)cn6)CC5)CC4)CC3)nc(OC3CC3)c21` (stereo partly drawn) [Example 178, 3-(6-{4-[4-({6-[4-cyclopropoxy-3-(propan-2-yl)-3H-imidazo[4,5-c]pyridin-6-yl]-2-oxo-1-[(1S,3S)-3-(piperidin-1-yl)cyclobutyl]-1,2-dihydrospiro[indole-3,4′-piperidin]-1′-yl}carbonyl)-4-methylpiperidine-1-carbonyl]piperidin-1-yl}pyridin-3-yl)piperidine-2,6-dione], in that order: under 0.1 µM and over 85%.
For `CC(C)n1cnc2cc(-c3ccc4c(c3)N([C@H]3C[C@@H](N5CCCCC5)C3)C(=O)C43CCN(C(=O)C4CCN(C(=O)[C@H]5CC[C@H](n6cc7cc(C8CCC(=O)NC8=O)ccc7n6)CC5)CC4)CC3)nc(NC3CC3)c21` (stereo partly drawn) [Example 179, 3-{2-[(1R,4R)-4-[4-({6-[4-(cyclopropylamino)-3-(propan-2-yl)-3H-imidazo[4,5-c]pyridin-6-yl]-2-oxo-1-[(1S,3S)-3-(piperidin-1-yl)cyclobutyl]-1,2-dihydrospiro[indole-3,4′-piperidin]-1′-yl}carbonyl)piperidine-1-carbonyl]cyclohexyl]-2H-indazol-5-yl}piperidine-2,6-dione], in that order: 0.1 to 0.5 µM and 70 to 85%.
As to `CC(C)n1cnc2cc(-c3ccc4c(c3)N([C@H]3C[C@@H](N5CCCCC5)C3)C(=O)C43CCN(C(=O)N4CCN(C(=O)C5CCN(c6ccc(C7CCC(=O)NC7=O)cn6)CC5)CC4)CC3)nc(NC3CC3)c21` (stereo partly shown) [Example 180], the DC50 is under 0.1 µM and the Dmax lay within 70 to 85%.
Take `CC(C)n1cnc2cc(-c3ccc4c(c3)N([C@H]3C[C@@H](N5CCCCC5)C3)C(=O)C43CCN(C(=O)N4CCC(C(=O)N5CCN(c6ccc(C7CCC(=O)NC7=O)cn6)CC5)CC4)CC3)nc(NC3CC3)c21` (stereo partly drawn) [Example 181, 3-(6-{4-[1-({6-[4-(cyclopropylamino)-3-(propan-2-yl)-3H-imidazo[4,5-c]pyridin-6-yl]-2-oxo-1-[(1S,3S)-3-(piperidin-1-yl)cyclobutyl]-1,2-dihydrospiro[indole-3,4′-piperidin]-1′-yl}carbonyl)piperidine-4-carbonyl]piperazin-1-yl}pyridin-3-yl)piperidine-2,6-dione]: the 50% degradation concentration (DC50) was in the range of 0.1 to 0.5 µM and the Dmax was 50 to 70%.
As for `CC(C)n1cnc2cc(-c3ccc4c(c3)N([C@H]3C[C@@H](N5CCCCC5)C3)C(=O)C43CCN(C(=O)C4CC5(C4)CN(C(=O)C4CCN(c6ccc(C7CCC(=O)NC7=O)cn6)CC4)C5)CC3)nc(NC3CC3)c21` (stereo partly drawn) [Example 182, 3-(6-{4-[6-({6-[4-(cyclopropylamino)-3-(propan-2-yl)-3H-imidazo[4,5-c]pyridin-6-yl]-2-oxo-1-[(1S,3S)-3-(piperidin-1-yl)cyclobutyl]-1,2-dihydrospiro[indole-3,4′-piperidine]-1′-yl}carbonyl)-2-azaspiro[3.3]heptane-2-carbonyl]piperidin-1-yl}pyridin-3-yl)piperidine-2,6-dione], the DC50 was under 0.1 µM and the Dmax is over 85%.
On to `CC(C)n1cnc2cc(-c3ccc4c(c3)N(C3CC(N5CCCCC5)C3)C(=O)C43CCN(CC(=O)N4CCN(C(=O)C5CCN(c6ccc(C7CCC(=O)NC7=O)cn6)CC5)CC4)CC3)nc(NC3CC3)c21` (stereo not shown) [Example 183, 3-(6-{4-[4-(2-{6-[4-(cyclopropylamino)-3-(propan-2-yl)-3H-imidazo[4,5-c]pyridin-6-yl]-2-oxo-1-[3-(piperidin-1-yl)cyclobutyl]-1,2-dihydrospiro[indole-3,4′-piperidine]-1′-yl}Acetyl)piperazine-1-carbonyl]piperidin-1-yl}pyridin-3-yl)piperidine-2,6-dione], for which the DC50 is under 0.1 µM and the Dmax is over 85%.
As for `CC(C)n1cnc2cc(-c3ccc4c(c3)N([C@H]3C[C@@H](N5CCCCC5)C3)C(=O)C43CCN(C(=O)C4(C)CCN(C(=O)N5CC6(C5)CN(c5ccc(C7CCC(=O)NC7=O)cn5)C6)CC4)CC3)nc(NC3CC3)c21` (stereo partly drawn) [Example 184, 3-(6-{6-[4-({6-[4-(cyclopropylamino)-3-(propan-2-yl)-3H-imidazo[4,5-c]pyridin-6-yl]-2-oxo-1-[(1S,3S)-3-(piperidin-1-yl)cyclobutyl]-1,2-dihydrospiro[indole-3,4′-piperidine]-1′-yl}carbonyl)-4-methylpiperidine-1-carbonyl]-2,6-diazaspiro[3.3]heptan-2-yl}pyridin-3-yl)piperidine-2,6-dione], the DC50 lay in the range of 0.1 to 0.5 µM and the Dmax lay in the range of 50 to 70%.
Take `CC(C)n1cnc2cc(-c3ccc4c(c3)N([C@H]3C[C@@H](N5CCCCC5)C3)C(=O)C43CCN(C(=O)C4(C)CCN(C(=O)[C@H]5CC[C@H](Nc6ccc(N7CCC(=O)NC7=O)cn6)CC5)CC4)CC3)nc(NC3CC3)c21` [Example 192, 1-(6-{[(1R,4R)-4-[4-({6-[4-(cyclopropylamino)-3-(propan-2-yl)-3H-imidazo[4,5-c]pyridin-6-yl]-2-oxo-1-[(1S,3S)-3-(piperidin-1-yl)cyclobutyl]-1,2-dihydrospiro[indole-3,4′-piperidin]-1′-yl}carbonyl)-4-methylpiperidine-1-carbonyl]cyclohexyl]amino}pyridin-3-yl)-1,3-diazinane-2,4-dione]: the DC50 was under 0.1 µM and the Dmax fell in the range of 70 to 85%.
As for `CC(C)n1cnc2cc(-c3ccc4c(c3)N([C@H]3C[C@@H](N5CCCCC5)C3)C(=O)C43CCN(CC(=O)N(C)C4CCN(C(=O)C5CCN(c6ccc(C7CCC(=O)NC7=O)cn6)CC5)CC4)CC3)nc(NC3CC3)c21` (stereo partly drawn) [Example 200, 2-{6-[4-(cyclopropylamino)-3-(propan-2-yl)-3H-imidazo[4,5-c]pyridin-6-yl]-2-oxo-1-[(1S,3S)-3-(piperidin-1-yl)cyclobutyl]-1,2-dihydrospiro[indole-3,4′-piperidin]-1′-yl}-N-(1-{1-[5-(2,6-dioxopiperidin-3-yl)pyridin-2-yl]piperidine-4-carbonyl}piperidin-4-yl)-N-methylacetamide], the DC50 was in the range of 0.1 to 0.5 µM and the Dmax is over 85%.
`CC(C)n1cnc2cc(-c3ccc4c(c3)N([C@H]3C[C@@H](N5CCCCC5)C3)C(=O)C43CCN(CC(=O)N(C)C4CCN(C(=O)C5CCN(c6cc(C7CCC(=O)NC7=O)ccn6)CC5)CC4)CC3)nc(NC3CC3)c21` (stereo partly drawn) [Example 201, 2-{6-[4-(cyclopropylamino)-3-(propan-2-yl)-3H-imidazo[4,5-c]pyridin-6-yl]-2-oxo-1-[(1S,3S)-3-(piperidin-1-yl)cyclobutyl]-1,2-dihydrospiro[indole-3,4′-piperidin]-1′-yl}-N-(1-{1-[4-(2,6-dioxopiperidin-3-yl)pyridin-2-yl]piperidine-4-carbonyl}piperidin-4-yl)-N-methylacetamide]: the DC50 lay in the range of 0.1 to 0.5 µM and the Dmax lay in the range of 50 to 70%.
Take `CC(C)n1cnc2cc(-c3ccc4c(c3)N([C@H]3C[C@@H](N5CCCCC5)C3)C(=O)C43CCN(C(=O)C4(C)CCN(C(=O)C5CCN(c6ccc(N7CCC(=O)NC7=O)cc6)CC5)CC4)CC3)nc(NC3CC3)c21` [Example 211, 1-(4-{4-[4-({6-[4-(cyclopropylamino)-3-(propan-2-yl)-3H-imidazo[4,5-c]pyridin-6-yl]-2-oxo-1-[(1S,3S)-3-(piperidin-1-yl)cyclobutyl]-1,2-dihydrospiro[indole-3,4′-piperidin]-1′-yl}carbonyl)-4-methylpiperidine-1-carbonyl]piperidin-1-yl}phenyl)-1,3-diazinane-2,4-dione]: the DC50 is under 0.1 µM and the Dmax was 70 to 85%.

For the origin of these results see patent publication US12091426B2, “Bifunctional degraders of hematopoietic progenitor kinase and therapeutic uses thereof” (Nurix Therapeutics, Inc., priority 2021, dated 2024).
